From article PMC10321576, “Cyclic peptides target the aromatic cage of a PHD-finger reader domain to modulate epigenetic protein function” (Chemical Science, 2023)
Peptide text beside a SMILES is read from it.

How the values were obtained:
KDM7B JmjC = target: T1, KDM7B JmjC (Homo sapiens, UniProt Q9UPP1); experiment: BLI binding; design: key to BLI Screening, KDM7B JmjC: (+) = binding; (-) = no binding; (NS) = non-specific
T1 construct: made in house
Excerpt: Figure S2. BLI for KDM7 proteins with cyclic peptides.
BLI traces for b inding to KDM7 protein domains immobilised by C-terminal His -tag on Ni -NTA
biosensors, against cyclic peptides. Response trace for each peptide concentration is represented by
a different colour, with the fitted curves overlaid in black.
concentration plotted, with 2-fold dilutions thereafter. Dual domain = PHD+JmjC. […]
against KDM7 and other protein domains. t1/2 = half life (0.693 / Koff)
(1 picture or pasted object on this page, not shown here)

KDM7C PHD = target: T2, KDM7C PHD (Homo sapiens, UniProt O75151); experiment: AlphaScreen displacement of H3 1-21K4me3-Bt; type: binding; settings: average of two independent experiments
T2 construct: KDM7C 1-67; made in house
T2 sequence (O75151 1-67): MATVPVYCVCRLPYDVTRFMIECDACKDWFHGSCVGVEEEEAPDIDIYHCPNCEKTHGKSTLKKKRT
Excerpt: (§1) The functional effect of OC9 on the PHD-finger was further assessed using an AlphaScreen (AS) based proximity assay. […]

KDM7B PHD = target: T3, KDM7B PHD (Homo sapiens, UniProt Q9UPP1); experiment: AlphaScreen displacement of H3 1-21K4me3-Bt; type: binding; settings: average of at least two independent experiments; read-out: AlphaScreen displacement IC50, KDM7B PHD
T3 construct: KDM7B 1-66; made in house
T3 sequence (Q9UPP1 1-66 isoform Q9UPP1-2): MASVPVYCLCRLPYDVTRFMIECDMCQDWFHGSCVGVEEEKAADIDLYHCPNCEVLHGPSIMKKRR
Excerpt: as §1

KDM7B PHD-finger = target: T4, KDM7B PHD-finger (Homo sapiens, UniProt Q9UPP1); experiment: Protein NMR 1H-15N HSQC chemical shift perturbation; type: binding; settings: Free PHD vs PHD+peptide
T4 construct: KDM7B 1-66; His-tag (C); made in house
T4 sequence (Q9UPP1 1-66 isoform Q9UPP1-2): T3 sequence (Q9UPP1 1-66 isoform Q9UPP1-2)
Excerpt: To better elucidate OC9 interactions at a single residue level, we conducted protein NMR studies using isotopically labelled PHD-finger.[48] Comparison of ^1H–^15N HSQC spectra for isotopically labelled apo and OC9-bound protein (Fig. 4a), independently assigned using ^13C,^15N 3D experiments (Fig. S21, NMR ESI ^†), identified 24 out of 66 protein residues with significant (standard deviation, s > 1) chemical shift perturbation (CSP, Δδ) of their backbone amides (Fig. 4b).
(a) ^1H–^15N HSQC of KDM7B PHD-finger in the apo (black) or bound forms with OC9 (purple, 1 : 1) or H3_1–21K4me3 (green, 3 : 1). (b) ^1H and ^15N chemical shift changes for apo vs. + OC9 were combined and weighted to give chemical shift perturbation (CSP) (Δδ) values. Standard deviation (σ) of Δδ are indicated (>1 pink, >2 purple). (c) TALOS+ predicts similar secondary structure elements in apo and OC9-bound solution protein complexes (light grey) to those found in PDB ID 3KV4 (dark grey). […] (e) Shielded ^1H-NMR signals centred around −0.5 ppm belonging to the OC9 V10 γ-methyl groups are observed in some OC9–PHD complexes, but not in apo protein, or complexes with OC9 V10A and OC9 V10DV. The V10^OC9 γ-methyl signals have NOE interactions (black semi-circles) with the W29^PHD indole, which itself is shielded upon binding of OC9 (indicated by ΔδH values).

T1 sequence (Q9UPP1 231-387 limits assumed): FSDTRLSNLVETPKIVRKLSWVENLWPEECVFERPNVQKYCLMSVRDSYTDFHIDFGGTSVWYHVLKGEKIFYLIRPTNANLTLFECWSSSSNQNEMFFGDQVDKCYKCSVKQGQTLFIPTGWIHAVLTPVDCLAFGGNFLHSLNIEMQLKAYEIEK

**Q.** For CC(C)C[C@@H]1NC(=O)[C@H](Cc2ccc(O)cc2)NC(=O)[C@H](Cc2ccc(O)cc2)NC(=O)CSC[C@@H](C(N)=O)NC(=O)[C@H]([C@@H](C)O)NC(=O)[C@H](CCCNC(=N)N)NC(=O)[C@H](Cc2ccccc2)NC(=O)[C@H](C(C)C)NC(=O)[C@H](CO)NC(=O)[C@@H]2CCCN2C(=O)[C@H](Cc2ccc(O)cc2)NC(=O)[C@@H]2CCCN2C(=O)[C@H](Cc2c[nH]cn2)NC(=O)[C@H]([C@@H](C)O)NC1=O [OC9] (HELM PEPTIDE1{[O=C(C[*:3])[*:2]].Y.Y.L.T.H.P.Y.P.S.V.F.R.T.C.[am]}$PEPTIDE1,PEPTIDE1,1:R3-15:R3$$$V2.0), which Kd (KDM7B JmjC; 1:1 binding model, read-out: BLI pKD, KDM7B JmjC (converted)) is on record?
**A.** > 1000 nM

**Q.** What about the “BLI KD, KDM7B JmjC” value (KDM7B JmjC; His-tagged protein on Ni-NTA biosensors, 1:1 binding model) of the same compound?
**A.** no affinity

**Q.** And the “BLI Screening, KDM7B JmjC” value (KDM7B JmjC; qualitative assessment of binding by BLI)?
**A.** -

**Q.** What about the IC50 (KDM7C PHD) of the same compound?
**A.** 26 nM

**Q.** What about the IC50 (KDM7B PHD) of the same compound?
**A.** 32 nM

**Q.** And the “CSP Trp side chain” value (KDM7B PHD-finger; Trp side chain 1H-15N)?
**A.** 0.6107

**Q.** What about the “CSP Ala2” value (KDM7B PHD-finger; residue Ala2 amide 1H-15N) of the same compound?
**A.** 0.0035

**Q.** What about the “CSP Ala42” value (KDM7B PHD-finger; residue Ala42 amide 1H-15N) of the same compound?
**A.** 0.4429

**Q.** What about the “CSP Ala43” value (KDM7B PHD-finger; residue Ala43 amide 1H-15N) of the same compound?
**A.** 0.4556

**Q.** And the “CSP Arg11” value (KDM7B PHD-finger; residue Arg11 amide 1H-15N)?
**A.** 0.0082

**Q.** And the “CSP Arg18” value (KDM7B PHD-finger; residue Arg18 amide 1H-15N)?
**A.** 0.1460

**Q.** What about the “CSP Arg65” value (KDM7B PHD-finger; residue Arg65 amide 1H-15N) of the same compound?
**A.** 0.0120

**Q.** What about the “CSP Arg66” value (KDM7B PHD-finger; residue Arg66 amide 1H-15N) of the same compound?
**A.** 0.0057

**Q.** And the “CSP Asn52” value (KDM7B PHD-finger; residue Asn52 amide 1H-15N)?
**A.** 0.0450

**Q.** What about the “CSP Asp15” value (KDM7B PHD-finger; residue Asp15 amide 1H-15N) of the same compound?
**A.** 0.2640

**Q.** What about the “CSP Asp24” value (KDM7B PHD-finger; residue Asp24 amide 1H-15N) of the same compound?
**A.** 0.0779

**Q.** What about the “CSP Asp28” value (KDM7B PHD-finger; residue Asp28 amide 1H-15N) of the same compound?
**A.** 0.1748

**Q.** What about the “CSP Asp44” value (KDM7B PHD-finger; residue Asp44 amide 1H-15N) of the same compound?
**A.** 0.1350

**Q.** What about the “CSP Asp46” value (KDM7B PHD-finger; residue Asp46 amide 1H-15N) of the same compound?
**A.** 0.1724

**Q.** What about the “CSP Cys8” value (KDM7B PHD-finger; residue Cys8 amide 1H-15N) of the same compound?
**A.** 0.2344

**Q.** What about the “CSP Cys10” value (KDM7B PHD-finger; residue Cys10 amide 1H-15N) of the same compound?
**A.** 0.0550

**Q.** What about the “CSP Cys23” value (KDM7B PHD-finger; residue Cys23 amide 1H-15N) of the same compound?
**A.** 0.1441

**Q.** And the “CSP Cys26” value (KDM7B PHD-finger; residue Cys26 amide 1H-15N)?
**A.** 0.1542

**Q.** And the “CSP Cys34” value (KDM7B PHD-finger; residue Cys34 amide 1H-15N)?
**A.** 0.0336

**Q.** And the “CSP Cys50” value (KDM7B PHD-finger; residue Cys50 amide 1H-15N)?
**A.** 0.0486

**Q.** And the “CSP Cys53” value (KDM7B PHD-finger; residue Cys53 amide 1H-15N)?
**A.** 0.0638

**Q.** What about the “CSP Gln27” value (KDM7B PHD-finger; residue Gln27 amide 1H-15N) of the same compound?
**A.** 0.1502

**Q.** What about the “CSP Glu22” value (KDM7B PHD-finger; residue Glu22 amide 1H-15N) of the same compound?
**A.** 0.1442

**Q.** What about the “CSP Glu38” value (KDM7B PHD-finger; residue Glu38 amide 1H-15N) of the same compound?
**A.** 0.1925

**Q.** And the “CSP Glu39” value (KDM7B PHD-finger; residue Glu39 amide 1H-15N)?
**A.** 0.2336

**Q.** And the “CSP Glu40” value (KDM7B PHD-finger; residue Glu40 amide 1H-15N)?
**A.** 0.1019

**Q.** And the “CSP Glu54” value (KDM7B PHD-finger; residue Glu54 amide 1H-15N)?
**A.** 0.0569

**Q.** What about the “CSP Gly32” value (KDM7B PHD-finger; residue Gly32 amide 1H-15N) of the same compound?
**A.** 0.1798

**Q.** And the “CSP Gly36” value (KDM7B PHD-finger; residue Gly36 amide 1H-15N)?
**A.** 0.1053

**Q.** What about the “CSP Gly58” value (KDM7B PHD-finger; residue Gly58 amide 1H-15N) of the same compound?
**A.** 0.0436

**Q.** And the “CSP His31” value (KDM7B PHD-finger; residue His31 amide 1H-15N)?
**A.** 0.2040

**Q.** What about the “CSP His49” value (KDM7B PHD-finger; residue His49 amide 1H-15N) of the same compound?
**A.** 0.0826

**Q.** What about the “CSP His57” value (KDM7B PHD-finger; residue His57 amide 1H-15N) of the same compound?
**A.** 0.0542

**Q.** What about the “CSP Ile21” value (KDM7B PHD-finger; residue Ile21 amide 1H-15N) of the same compound?
**A.** 0.1523

**Q.** And the “CSP Ile45” value (KDM7B PHD-finger; residue Ile45 amide 1H-15N)?
**A.** 0.1111

**Q.** What about the “CSP Ile61” value (KDM7B PHD-finger; residue Ile61 amide 1H-15N) of the same compound?
**A.** 0.1500

**Q.** And the “CSP Leu9” value (KDM7B PHD-finger; residue Leu9 amide 1H-15N)?
**A.** 0.2010

**Q.** And the “CSP Leu12” value (KDM7B PHD-finger; residue Leu12 amide 1H-15N)?
**A.** 0.1857

**Q.** What about the “CSP Leu47” value (KDM7B PHD-finger; residue Leu47 amide 1H-15N) of the same compound?
**A.** 0.0914

**Q.** What about the “CSP Leu56” value (KDM7B PHD-finger; residue Leu56 amide 1H-15N) of the same compound?
**A.** 0.0558

**Q.** And the “CSP Lys41” value (KDM7B PHD-finger; residue Lys41 amide 1H-15N)?
**A.** 0.1054

**Q.** And the “CSP Lys63” value (KDM7B PHD-finger; residue Lys63 amide 1H-15N)?
**A.** 0.1309

**Q.** And the “CSP Lys64” value (KDM7B PHD-finger; residue Lys64 amide 1H-15N)?
**A.** 0.0270

**Q.** What about the “CSP Met20” value (KDM7B PHD-finger; residue Met20 amide 1H-15N) of the same compound?
**A.** 0.3618

**Q.** And the “CSP Met25” value (KDM7B PHD-finger; residue Met25 amide 1H-15N)?
**A.** 0.6758

**Q.** And the “CSP Met62” value (KDM7B PHD-finger; residue Met62 amide 1H-15N)?
**A.** 0.0955

**Q.** What about the “CSP Phe19” value (KDM7B PHD-finger; residue Phe19 amide 1H-15N) of the same compound?
**A.** 0.3281

**Q.** What about the “CSP Phe30” value (KDM7B PHD-finger; residue Phe30 amide 1H-15N) of the same compound?
**A.** 0.2483

**Q.** What about the “CSP Ser3” value (KDM7B PHD-finger; residue Ser3 amide 1H-15N) of the same compound?
**A.** 0.0045

**Q.** And the “CSP Ser33” value (KDM7B PHD-finger; residue Ser33 amide 1H-15N)?
**A.** 0.1228

**Q.** And the “CSP Ser60” value (KDM7B PHD-finger; residue Ser60 amide 1H-15N)?
**A.** 0.0469

**Q.** What about the “CSP Thr17” value (KDM7B PHD-finger; residue Thr17 amide 1H-15N) of the same compound?
**A.** 0.2705

**Q.** What about the “CSP Trp29” value (KDM7B PHD-finger; residue Trp29 amide 1H-15N) of the same compound?
**A.** 0.3903

**Q.** What about the “CSP Tyr7” value (KDM7B PHD-finger; residue Tyr7 amide 1H-15N) of the same compound?
**A.** 0.2658

**Q.** And the “CSP Tyr14” value (KDM7B PHD-finger; residue Tyr14 amide 1H-15N)?
**A.** 0.3173

**Q.** And the “CSP Tyr48” value (KDM7B PHD-finger; residue Tyr48 amide 1H-15N)?
**A.** 0.7926

**Q.** And the “CSP Val4” value (KDM7B PHD-finger; residue Val4 amide 1H-15N)?
**A.** 0.0230

**Q.** What about the “CSP Val6” value (KDM7B PHD-finger; residue Val6 amide 1H-15N) of the same compound?
**A.** 0.1610

**Q.** What about the “CSP Val16” value (KDM7B PHD-finger; residue Val16 amide 1H-15N) of the same compound?
**A.** 0.3656

**Q.** What about the “CSP Val35” value (KDM7B PHD-finger; residue Val35 amide 1H-15N) of the same compound?
**A.** 0.0666

**Q.** What about the “CSP Val37” value (KDM7B PHD-finger; residue Val37 amide 1H-15N) of the same compound?
**A.** 0.0847

**Q.** And the “CSP Val55” value (KDM7B PHD-finger; residue Val55 amide 1H-15N)?
**A.** 0.0250
